Values quoted from earlier work, collected in US4978531A, “Clebopride transdermal patch” (Fordonal, S.A., priority 1987, dated 1990).

Conditions: in vivo

Structure (SMILES): COc1cc(N)c(Cl)cc1C(=O)NC1CCN(Cc2ccccc2)CC1 [clebopride]
- biological half-life: about 1.5 hours
